From PMC7175181 (Biomolecules, 2020)
Entries after “also recorded” stand apart in the source; their conditions may differ. No end group written: not given here.

Assays:
ACE [1] = molecular target: T1, ACE (Homo sapiens, UniProt P12821); experiment: In vitro ACE inhibition assay (ACE Kit-WST); assay type: biochemical; settings: for IC50: ACE Kit-WST, 1 h at 37 °C, absorbance 450 nm, non-linear regression, mean of three independent experiments (n = 3); for Comparison of IC50 (ACE inhibition): n = 3, one-way ANOVA and Sidak's multiple-comparisons test
T1 construct: purchased Dojindo Laboratories ACE Kit-WST
T1 sequence (P12821 30-1306, species assumed): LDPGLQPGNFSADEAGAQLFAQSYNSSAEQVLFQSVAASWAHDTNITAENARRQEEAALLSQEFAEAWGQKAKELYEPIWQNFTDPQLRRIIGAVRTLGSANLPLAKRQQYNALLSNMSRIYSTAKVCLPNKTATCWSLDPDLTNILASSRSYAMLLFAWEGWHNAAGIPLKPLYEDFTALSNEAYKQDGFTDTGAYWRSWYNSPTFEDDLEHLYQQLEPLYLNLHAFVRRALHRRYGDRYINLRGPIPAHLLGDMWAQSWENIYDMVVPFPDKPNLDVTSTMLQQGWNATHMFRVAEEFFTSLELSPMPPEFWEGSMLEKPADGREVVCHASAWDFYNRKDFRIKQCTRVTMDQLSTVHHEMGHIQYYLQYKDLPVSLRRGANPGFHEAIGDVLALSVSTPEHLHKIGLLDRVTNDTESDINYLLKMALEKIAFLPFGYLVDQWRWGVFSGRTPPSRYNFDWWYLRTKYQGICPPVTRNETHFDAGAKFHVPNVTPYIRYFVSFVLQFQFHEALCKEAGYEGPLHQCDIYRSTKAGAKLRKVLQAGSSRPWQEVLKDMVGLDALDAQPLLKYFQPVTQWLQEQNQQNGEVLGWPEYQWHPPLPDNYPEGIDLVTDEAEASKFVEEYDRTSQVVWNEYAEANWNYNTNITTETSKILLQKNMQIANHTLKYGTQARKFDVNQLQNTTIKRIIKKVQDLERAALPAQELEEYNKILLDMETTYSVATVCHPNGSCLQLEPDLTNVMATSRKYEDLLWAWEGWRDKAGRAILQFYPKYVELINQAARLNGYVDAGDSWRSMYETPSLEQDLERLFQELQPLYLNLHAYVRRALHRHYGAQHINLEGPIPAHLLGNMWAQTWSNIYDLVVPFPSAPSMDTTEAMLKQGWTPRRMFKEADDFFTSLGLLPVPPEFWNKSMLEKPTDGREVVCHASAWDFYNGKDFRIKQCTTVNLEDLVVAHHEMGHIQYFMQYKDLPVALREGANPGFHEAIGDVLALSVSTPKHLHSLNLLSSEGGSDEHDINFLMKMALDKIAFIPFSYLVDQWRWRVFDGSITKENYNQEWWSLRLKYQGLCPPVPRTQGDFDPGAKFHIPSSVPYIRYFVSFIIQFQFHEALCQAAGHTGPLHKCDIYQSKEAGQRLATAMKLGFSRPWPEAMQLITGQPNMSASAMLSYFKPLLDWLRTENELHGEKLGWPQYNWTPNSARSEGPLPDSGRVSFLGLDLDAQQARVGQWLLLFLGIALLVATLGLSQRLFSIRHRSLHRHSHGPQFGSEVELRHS
Experimental: The inhibition of ACE was measured using the ACE Kit-WST (Dojindo Laboratories, Mashiki-machi, Japan). Custom synthesized hemorphin peptides ([…], […], YPWTQRF, and YPWTRRF) were purchased from New England Peptide (Gardner, MA, USA). Indicator working solution and enzyme working solution were prepared according to the manufacturer’s instructions. 10 µL of each dose of hemorphin was added to the wells of a 96-well microplate. 20 µL and 40 µL of deionized water were added in blank 1 and blank 2 wells. 20 µL of the substrate buffer was added to each well, followed by 20 µL of enzyme working solution in all of the sample wells and blank 1. The plate was incubated for 1 h at 37 °C. After the incubation period, 200 µL of indicator working solution was added to each well and then incubated at room temperature for 5 min. After incubation, plate absorbance was measured at 450 nm using Glomax Discover Microplate Reader (Promega, Madison, WI, USA). The inhibition of ACE was calculated using the following equation: Inhibition rate (%) = (Ablank1 − Asample)/(Ablank1 − Ablank2) × 100.
From the obtained data, IC50 was calculated using Prism 7 (GraphPad, San Diego, CA, USA) from a non-linear regression plot of ACE inhibition (%) against peptide concentration (µM).
Nonlinear regression was used to generate dose–response curves in Prism 7 (GraphPad, San Diego, CA, USA). The observed data are presented as mean ± SEM (Standard Error of the Mean). One-way or two-way analysis of variance (ANOVA), as appropriate, were carried out and a comparison of means was performed by Sidak’s multiple-comparisons test to estimate the statistical significance between the different treatments.

[2] = ref [15],[16]; cited from earlier work
Text: Hemorphins are endogenous peptides that are produced from beta hemoglobin. Hemorphins of various lengths (4–10 amino acids) have been identified so far. These peptides are mainly produced in the plasma, brain, cerebrospinal fluid, and spinal cord. The decapeptide LVV-hemorphin-7 ([…]) is considered to be the longest form of hemorphin and is found abundantly in the mammalian nervous system. […] Numerous studies have reported various biological activities of hemor ...

[3] = cited from earlier work
Text: Angiotensin-I converting enzyme (ACE) is a zinc metallopeptidase that is found in many tissues and biological fluids and it is an important player in regulating RAAS and kallikrein-kinnin system (KKS). There are two main mechanisms by which ACE causes hypertension. Firstly, ACE cleaves two amino acids from the decapeptide angiotensin I to produce the octapeptide angiotensin II, which is a strong vasoconstrictor. Secondly, ACE is involved in the degradation of bradykinnin, a potent vasodilator [5, 6]. ACE is associated with hypertension and remains an important target for the discovery of an ...

ACE [4] = settings: ref [53]; cited from earlier work
ACE [5] = molecular target: T1, ACE; set-up: method as in 2 sources, one per row (each row's own in cited_ref): ref [54] = [54]; PMID 7945362; doi:10.1006/bbrc.1994.2447; 54. Zhao Q. Sannier F. Garreau I. Guillochon D. Piot J.M. Inhibition and inhibition kinetics of angiotensin converting enzyme activity by hemorphins, isolated from a peptic bovine hemoglobin hydrolysa ||| ref [24] = [24]; PMID 12182948; doi:10.1016/S0196-9781(02)00083-9; 24. Fruitier-Arnaudin I. Cohen M. Bordenave S. Sannier F. Piot J.M. Comparative effects of angiotensin IV and two hemorphins on angiotensin-converting enzyme activity Peptides 2002 23 1465 1470 10.101; settings: ref [54]; cited from earlier work
Experimental: An ACE inhibition assay was performed to evaluate the IC50 of these peptides to investigate this further.

Molecule	IC50 (ACE [1]) [µM]	Comparison of IC50 (ACE inhibition) (ACE [1])	other results
CC(C)C[C@H](N)C(=O)N[C@H](C(=O)N[C@H](C(=O)N[C@@H](Cc1ccc(O)cc1)C(=O)N1CCC[C@H]1C(=O)N[C@@H](Cc1c[nH]c2ccccc12)C(=O)N[C@H](C(=O)N[C@@H](CCC(N)=O)C(=O)N[C@@H](CCCNC(=N)N)C(=O)N[C@@H](Cc1ccccc1)C(=O)O)[C@@H](C)O)C(C)C)C(C)C	12.6	significantly lower than that of YPWTQRF (25.894 µM)	Stability compared to other hemorphins [2]: most stable
CC(C)C[C@H](N)C(=O)N[C@H](C(=O)N[C@H](C(=O)N[C@@H](Cc1ccc(O)cc1)C(=O)N1CCC[C@H]1C(=O)N[C@@H](Cc1c[nH]c2ccccc12)C(=O)N[C@H](C(=O)N[C@@H](CCCNC(=N)N)C(=O)N[C@@H](CCCNC(=N)N)C(=O)N[C@@H](Cc1ccccc1)C(=O)O)[C@@H](C)O)C(C)C)C(C)C	6.6	lower than YPWTRRF (9.310 µM); also recorded: the difference between LVVYPWTRRF and YPWTRRF was not significant	Comparison of IC50 (ACE inhibition) (ACE [1]; listed as camel LVV-hemorphin-7): significantly less than non-camel LVV-hemorphin-7 (12.649 µM) (p < 0.05, n = 3)
C[C@H](CS)C(=O)N1CCC[C@H]1C(=O)O [captopril]			Side effects [3]: cough, kidney problems, angioedema, and allergic reactions
C[C@H](N[C@@H](CCc1ccccc1)C(=O)O)C(=O)N1CCC[C@H]1C(=O)O [enalaprilat]			Affinity for ACE compared to lisinopril (ACE [4]): lower affinity when compared to lisinopril
VVYPWTQRF			ACE inhibitory activity compared to other hemorphins (ACE [5]): the removal of the N-terminus leucine significantly decreased the ACE inhibition activity of VVYPWTQRF in comparison to LVVYPWTQRF
YPWTQRF [YPWTQRF]	25.9		
YPWTRRF [YPWTRRF]	9.31	significantly lower IC50	Comparison of IC50 (ACE inhibition) (ACE [1]; listed as camel hemorphin-7): significantly lower than the non-camel hemorphin-7 (25.894 µM) (p < 0.001, n = 3)
